In patent publication US20200055848A1, “FURANONE DERIVATES AND METHODS OF USE THEREOF” (CARNA BIOSCIENCES, INC., priority 2016, published 2020):

Assays:
[1] = target: Cdc7 (Homo sapiens, UniProt O00311); test: Rapid dilution assay (dissociation rate from Cdc7); type: biochemical
Text: FIG. 2 is a graph of the results obtained from the rapid dilution assay for Cdc7 inhibitors. Recovery of enzymatic activity was monitored by formation of the phosphorylated product. DMSO control (closed circle), compound 1 (open triangle), compound 13 (open square).
To better understand the observed time dependent inhibition of these compounds, compound 13 was subjected to the rapid dilution assay to study dissociation rate, and compared with compound 1. The inhibitor-enzyme mixture was rapidly diluted into the assay buffer containing the substrate and a high concentration of ATP, and then the phosphorylated product formation was monitored over 500 min of time course.

[2] = system: panel of 121 kinases; test: Kinase selectivity screen over a panel of 121 kinases; type: biochemical; conditions: 1 mM ATP with preincubation
Protocol: (§1) To investigate the representative kinase selectivity of these compounds at physiological ATP levels, compound 13 was screened over a panel of 121 kinases in the presence of 1 mM ATP with preincubation method. […] IC50 values of hit kinases were determined to confirm the selectivity of compound 13.

[3] = system: cleaved PARP; test: Western blotting of cleaved PARP in Colo-205 cells; type: cell-based, human; conditions: 48 h
Protocol: (§2) FIGS. 3A and 3B illustrate the effects of Cdc7 inhibition by compound 13 in Colo-205 cells. a) Western blot analysis of extracts prepared from Colo-205 cells at 48 h after treatment with DMSO control (0 μM) or compound 13 at indicated concentrations. b) […] analysis of Colo-205 cells treated for 48 h with DMSO control (0 μM) and the indicated concentration of compound 13. DNA content was measured by FACS after propidium iodide staining.
Human colon adenocarcinoma cell line Colo-205 was obtained from American Type Culture Collection (ATCC, Manassas Va.). Cells were grown in RPMI1640 supplemented with 10% FBS and 1% penicillin/streptomycin at 37° C., 5% CO2 and 95% humidity. Antibodies against Phospho-Histone H2A.X (Ser139) (no. 2577), Cleaved PARP (Asp214) (no. 9541) and MCM2 (no. 3619) were obtained from Cell signaling Technology. […]
Cells were seeded in T75 flasks (cell density, 2.25×10^6 cells/13.5 mL) and then incubated at 37° C. overnight. […] After washing with cold D-PBS, cells were scraped and lysed using a lysis buffer [RIPA Buffer (×1) containing 1% Phosphatase inhibitor Cocktail 3, 1% Phosphatase inhibitor Cocktail, and 1 mM phenylmethylsulfonyl fluoride], and the obtained samples were analyzed by western blotting. […] Each band was detected by chemiluminescence using a CCD camera (ImageQuant LAS 500, GE healthcare Ltd.).

[4] = system: Colo-205 cells; test: Cell cycle analysis (flow cytometry); type: cell-based, human; conditions: 48 hours, 0.33 and 1 μM
Protocol: as §2
Colo-205 cells (5×10^5) were seeded in six-well plates and treated with different concentrations of a test compound. After 48 h, the cells were harvested and suspended in 0.5 mL of D-PBS. The cells were then fixed by adding 1 mL of ice-cold ethanol, and the samples were kept at −30° C. The cells were resuspended in 200 μL PI solution (20 μg/mL propydium iodide and 100 μg/mL RNaseA of D-PBS), and incubated in the dark for 1 h at room temperature. Cell cycle analyses were performed using FACS Calibur flow cytometer (BD Biosciences).

[5] = target: GSK3α (Homo sapiens, UniProt P49840); test: Kinase selectivity IC50, GSK3α; type: biochemical
Sequence of GSK3α (P49840 whole entry): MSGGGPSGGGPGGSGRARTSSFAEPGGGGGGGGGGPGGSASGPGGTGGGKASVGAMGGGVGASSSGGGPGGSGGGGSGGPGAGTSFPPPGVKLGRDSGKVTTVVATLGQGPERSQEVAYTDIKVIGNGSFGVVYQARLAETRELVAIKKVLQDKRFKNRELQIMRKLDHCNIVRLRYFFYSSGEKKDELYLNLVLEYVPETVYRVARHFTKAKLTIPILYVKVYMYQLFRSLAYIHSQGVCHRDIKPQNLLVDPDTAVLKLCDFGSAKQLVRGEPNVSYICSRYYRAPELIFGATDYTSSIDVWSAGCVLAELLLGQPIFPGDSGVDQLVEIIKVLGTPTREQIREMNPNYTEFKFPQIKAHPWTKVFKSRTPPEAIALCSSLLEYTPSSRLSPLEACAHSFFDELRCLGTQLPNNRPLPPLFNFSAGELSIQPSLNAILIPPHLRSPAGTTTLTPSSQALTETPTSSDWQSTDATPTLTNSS
Protocol: as §1

[6] = system: Colo-205 cells; test: Anti-proliferation activity in Colo-205 cells; type: cell-based; conditions: Homo sapiens, read-out: reduction of cell proliferation IC50
[7] = Half-life after intravenous administration in mice; conditions: mouse, in vivo
[8] = target: DYRK1B (Homo sapiens, UniProt Q9Y463); test: Kinase selectivity IC50, DYRK1B; type: biochemical
Protocol: as §1

[9] = target: GSK3β (Homo sapiens, UniProt P49841); test: Kinase selectivity IC50, GSK3β; type: biochemical
Sequence of GSK3β (P49841 whole entry): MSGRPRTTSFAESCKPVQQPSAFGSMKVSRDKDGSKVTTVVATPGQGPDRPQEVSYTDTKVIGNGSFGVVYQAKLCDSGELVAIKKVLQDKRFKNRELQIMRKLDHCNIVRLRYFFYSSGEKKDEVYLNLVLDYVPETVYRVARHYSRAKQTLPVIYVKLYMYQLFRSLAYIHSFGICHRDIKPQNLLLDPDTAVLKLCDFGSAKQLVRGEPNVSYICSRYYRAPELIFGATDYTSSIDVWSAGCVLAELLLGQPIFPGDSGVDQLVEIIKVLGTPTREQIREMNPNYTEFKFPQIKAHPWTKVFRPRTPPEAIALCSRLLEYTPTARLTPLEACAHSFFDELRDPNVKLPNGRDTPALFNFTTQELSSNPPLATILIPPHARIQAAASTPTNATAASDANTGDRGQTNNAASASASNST
Protocol: as §1

[10] = target: Erk2 (Homo sapiens, UniProt P28482); test: Kinase selectivity IC50, Erk2; type: biochemical
Sequence of Erk2 (P28482 whole entry): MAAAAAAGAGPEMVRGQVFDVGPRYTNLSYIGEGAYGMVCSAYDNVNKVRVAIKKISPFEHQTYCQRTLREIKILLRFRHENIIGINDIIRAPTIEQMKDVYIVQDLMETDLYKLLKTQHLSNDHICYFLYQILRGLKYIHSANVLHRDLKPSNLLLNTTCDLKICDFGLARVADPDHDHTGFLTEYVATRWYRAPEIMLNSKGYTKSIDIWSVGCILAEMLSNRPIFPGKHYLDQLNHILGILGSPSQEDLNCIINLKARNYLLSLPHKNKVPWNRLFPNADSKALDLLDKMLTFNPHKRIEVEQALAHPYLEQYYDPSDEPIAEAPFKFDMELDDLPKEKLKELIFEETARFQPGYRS
Protocol: as §1

[11] = target: Erk1 (Homo sapiens, UniProt P27361); test: Kinase selectivity IC50, Erk1; type: biochemical
Sequence of Erk1 (P27361 whole entry): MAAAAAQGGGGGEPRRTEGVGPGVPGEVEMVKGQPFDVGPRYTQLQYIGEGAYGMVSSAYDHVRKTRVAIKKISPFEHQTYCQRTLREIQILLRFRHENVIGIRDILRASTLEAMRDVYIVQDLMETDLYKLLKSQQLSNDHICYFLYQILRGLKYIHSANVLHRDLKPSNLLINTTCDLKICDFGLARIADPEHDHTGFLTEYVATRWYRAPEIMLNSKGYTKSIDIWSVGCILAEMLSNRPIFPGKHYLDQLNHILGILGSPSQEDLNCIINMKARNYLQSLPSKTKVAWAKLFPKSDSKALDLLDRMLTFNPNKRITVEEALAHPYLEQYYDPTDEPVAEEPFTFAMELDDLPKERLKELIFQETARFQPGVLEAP
Protocol: as §1

[12] = system: phosphorylation of MCM2 in Colo-205 cells; test: Recovery of MCM2 phosphorylation after inhibitor washout; type: cell-based, human; conditions: Colo-205 cells treated 48 hours, then compound-free media
Protocol: Colo-205 cells were treated with or without compounds for 48 h. After inhibitor washout with compound-free media, the cells were lysed at the indicated time and subjected to western blot analysis.
Next, we investigated the recovery of substrate phosphorylation in cells after inhibitor washout to see whether the slow-off rate of inhibitor affects the recovery of phosphorylation. Colo-205 cells were treated for 48 hours with 13, and then, the inhibitor was washed out with compound-free media. The cells were lysed at the indicated time, and the phosphorylation status of MCM2 was analyzed by western blotting.

[13] = target: CLK1 (Homo sapiens, UniProt P49759); test: Kinase selectivity IC50, CLK1; type: biochemical
Sequence of CLK1 (P49759 whole entry): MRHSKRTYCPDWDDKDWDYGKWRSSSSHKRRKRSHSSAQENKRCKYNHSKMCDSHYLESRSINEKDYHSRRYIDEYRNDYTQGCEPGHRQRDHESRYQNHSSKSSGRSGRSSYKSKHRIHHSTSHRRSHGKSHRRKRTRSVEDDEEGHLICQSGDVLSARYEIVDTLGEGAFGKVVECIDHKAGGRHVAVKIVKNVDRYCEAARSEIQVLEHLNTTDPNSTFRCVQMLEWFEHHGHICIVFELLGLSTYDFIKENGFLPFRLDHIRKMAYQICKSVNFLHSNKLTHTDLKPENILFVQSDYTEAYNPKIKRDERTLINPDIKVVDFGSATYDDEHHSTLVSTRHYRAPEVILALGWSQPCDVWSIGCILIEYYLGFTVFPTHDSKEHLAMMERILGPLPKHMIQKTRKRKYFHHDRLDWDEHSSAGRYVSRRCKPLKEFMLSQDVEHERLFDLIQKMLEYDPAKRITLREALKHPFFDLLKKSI
Protocol: as §1

[14] = target: CLK2 (Homo sapiens, UniProt P49760); test: Kinase selectivity IC50, CLK2; type: biochemical
Sequence of CLK2 (P49760 whole entry): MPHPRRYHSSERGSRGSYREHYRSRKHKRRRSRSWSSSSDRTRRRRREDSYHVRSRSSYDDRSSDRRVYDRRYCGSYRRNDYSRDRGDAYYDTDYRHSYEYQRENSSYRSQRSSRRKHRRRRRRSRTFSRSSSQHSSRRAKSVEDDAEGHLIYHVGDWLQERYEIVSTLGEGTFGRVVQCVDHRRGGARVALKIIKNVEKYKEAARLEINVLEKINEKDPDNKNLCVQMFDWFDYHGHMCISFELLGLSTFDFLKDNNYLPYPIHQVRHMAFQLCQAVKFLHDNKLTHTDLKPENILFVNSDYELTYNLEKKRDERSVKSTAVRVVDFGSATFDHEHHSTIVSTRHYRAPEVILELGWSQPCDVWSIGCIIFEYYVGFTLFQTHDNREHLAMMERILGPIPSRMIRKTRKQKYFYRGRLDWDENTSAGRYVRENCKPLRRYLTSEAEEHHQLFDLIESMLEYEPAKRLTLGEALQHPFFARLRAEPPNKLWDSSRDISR
Protocol: as §1

[15] = target: p70S6K (Homo sapiens, UniProt P23443); test: Kinase selectivity IC50, p70S6K; type: biochemical
Sequence of p70S6K (P23443 whole entry): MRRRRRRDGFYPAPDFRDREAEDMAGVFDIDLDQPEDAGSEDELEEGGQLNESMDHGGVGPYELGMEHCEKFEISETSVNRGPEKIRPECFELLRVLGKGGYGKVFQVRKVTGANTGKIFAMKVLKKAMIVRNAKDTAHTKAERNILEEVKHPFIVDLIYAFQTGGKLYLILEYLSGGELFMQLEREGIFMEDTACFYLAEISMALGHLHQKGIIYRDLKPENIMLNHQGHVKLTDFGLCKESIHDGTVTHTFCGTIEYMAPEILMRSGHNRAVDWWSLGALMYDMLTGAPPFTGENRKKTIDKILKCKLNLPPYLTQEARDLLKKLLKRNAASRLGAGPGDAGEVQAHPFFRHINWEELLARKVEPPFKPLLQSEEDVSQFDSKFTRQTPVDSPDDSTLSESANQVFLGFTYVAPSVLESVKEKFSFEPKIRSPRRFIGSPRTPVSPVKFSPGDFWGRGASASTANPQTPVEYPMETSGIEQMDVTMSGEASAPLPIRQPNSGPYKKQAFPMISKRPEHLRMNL
Protocol: as §1

[16] = 1 mM ATP with preincubation, mean of duplicated assays

Sequence of Cdc7 (O00311 whole entry): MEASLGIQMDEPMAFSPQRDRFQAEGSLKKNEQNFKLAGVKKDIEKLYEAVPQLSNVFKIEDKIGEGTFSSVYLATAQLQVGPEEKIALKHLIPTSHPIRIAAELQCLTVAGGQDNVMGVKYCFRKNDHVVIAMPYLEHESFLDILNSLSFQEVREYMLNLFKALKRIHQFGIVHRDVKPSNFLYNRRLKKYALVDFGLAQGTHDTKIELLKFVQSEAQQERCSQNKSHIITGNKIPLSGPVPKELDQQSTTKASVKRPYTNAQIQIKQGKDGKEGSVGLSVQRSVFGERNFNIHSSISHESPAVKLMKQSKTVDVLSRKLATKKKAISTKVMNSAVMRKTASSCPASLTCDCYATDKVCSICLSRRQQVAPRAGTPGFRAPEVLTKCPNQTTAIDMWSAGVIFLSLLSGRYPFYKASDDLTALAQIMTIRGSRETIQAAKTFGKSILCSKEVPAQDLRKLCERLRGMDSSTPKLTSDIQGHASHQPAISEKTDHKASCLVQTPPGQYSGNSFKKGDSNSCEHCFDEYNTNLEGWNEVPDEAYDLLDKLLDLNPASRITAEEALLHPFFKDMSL
Sequence of Cdc7 (Q9UBU7 whole entry partner): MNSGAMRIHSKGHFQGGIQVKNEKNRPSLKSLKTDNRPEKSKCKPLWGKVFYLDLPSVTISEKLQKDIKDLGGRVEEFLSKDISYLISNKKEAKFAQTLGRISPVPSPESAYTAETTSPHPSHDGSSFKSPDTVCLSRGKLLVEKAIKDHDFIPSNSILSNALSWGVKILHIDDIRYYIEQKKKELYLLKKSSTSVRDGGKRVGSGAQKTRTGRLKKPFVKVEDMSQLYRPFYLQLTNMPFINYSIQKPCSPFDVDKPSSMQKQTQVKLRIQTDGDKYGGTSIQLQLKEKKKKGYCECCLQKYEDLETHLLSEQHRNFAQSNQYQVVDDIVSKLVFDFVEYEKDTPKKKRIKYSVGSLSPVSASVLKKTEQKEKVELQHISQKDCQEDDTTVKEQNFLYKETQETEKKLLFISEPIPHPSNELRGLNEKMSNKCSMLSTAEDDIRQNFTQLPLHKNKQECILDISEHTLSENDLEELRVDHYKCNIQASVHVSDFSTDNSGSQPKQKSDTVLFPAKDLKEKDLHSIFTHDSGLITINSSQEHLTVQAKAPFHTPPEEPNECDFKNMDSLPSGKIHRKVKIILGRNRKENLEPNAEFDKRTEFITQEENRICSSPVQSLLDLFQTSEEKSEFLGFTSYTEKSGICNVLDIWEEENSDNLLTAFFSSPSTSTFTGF

phosphorylated product formation after rapid dilution ([1]; monitored over 500 min): much reduced rate
koff ([1]; rapid dilution, high concentration of ATP, read-out: off-rate from Cdc7 (koff) (converted)): 5.83e-05 s⁻¹
residence time ([1]; rapid dilution, high concentration of ATP, read-out: t1/2 of dissociation from Cdc7): 197 min
selectivity in favor of Cdc7 over CLKs [2]: 8 fold
share of the kinase panel inhibited ([2]; >50% inhibition at 0.1 μM, 121 kinases): 7%
IC50 [5, 16]: 37 nM
Fold selectivity, GSK3α ([5]; IC50 versus Cdc7): 61 fold
IC50 [6]: 170 nM
half-life [7]: 22.8 min
IC50 [8, 16]: 53 nM
Fold selectivity, DYRK1B ([8]; IC50 versus Cdc7): 88 fold
IC50 [9, 16]: 51 nM
Fold selectivity, GSK3β ([9]; IC50 versus Cdc7): 85 fold
IC50 [10, 16]: 61 nM
Fold selectivity, Erk2 ([10]; IC50 versus Cdc7): 102 fold
IC50 [11, 16]: 278 nM
Fold selectivity, Erk1 ([11]; IC50 versus Cdc7): 463 fold
IC50 [13, 16]: 5 nM
Fold selectivity, CLK1 ([13]; IC50 versus Cdc7): 8.3 fold
IC50 [14, 16]: 5.3 nM
Fold selectivity, CLK2 ([14]; IC50 versus Cdc7): 8.8 fold
IC50 [15, 16]: 399 nM
Fold selectivity, p70S6K ([15]; IC50 versus Cdc7): 665 fold
SMILES: CCOC(=O)C1=C(Nc2ccccc2Cl)OC(=Cc2c[nH]c3ncccc23)C1=O [Compound 13, Ethyl 5-((1H-pyrrolo[2,3-b]pyridin-3-yl)methylene)-2-((2-chlorophenyl)amino)-4-oxo-4,5-dihydrofuran-3-carboxylate]
cleaved PARP (apoptosis marker) [3]: Dose-dependent increases
G1 phase peak [4]: Marked decreases
sub-G1 population [4]: significant increase
phosphorylation of MCM2 after inhibitor washout [12]: inhibited even 24 hours after washout
